Laboratory results as given in ChEMBL document CHEMBL4480418, “Antibacterial activity of indolyl-quinolinium derivatives and study their mode of action” (Bioorg Med Chem, 2019).
In brackets after ≈: the same amount, converted by molar mass.

What was measured:
Assay type in all cases: functional
Staphylococcus aureus [1] = assay: Antimicrobial activity against Staphylococcus aureus ATCC 25923 measured after 18 hrs by broth microdilution method; details: ATCC 25923, 18 h
Enterococcus faecium [2] = assay: Antimicrobial activity against vancomycin-resistant Enterococcus faecium ATCC 700221 measured after 18 hrs by broth microdilution method; details: ATCC 700221, 18 h
Escherichia coli [3] = assay: Antimicrobial activity against Escherichia coli ATCC 25922 measured after 18 hrs by broth microdilution method; details: ATCC 25922, 18 h
Staphylococcus aureus [4] = assay: Antimicrobial activity against methicillin-resistant Staphylococcus aureus ATCC 43300 measured after 18 hrs by broth microdilution method; details: ATCC 43300, 18 h
Staphylococcus aureus [5] = assay: Antimicrobial activity against methicillin-resistant Staphylococcus aureus ATCC BAA-41 measured after 18 hrs by broth microdilution method; details: ATCC BAA-41, 18 h
Escherichia coli [6] = assay: Antimicrobial activity against NDM1 beta -lactamse expressing Escherichia coli ATCC BAA-2469 measured after 18 hrs by broth microdilution method; details: ATCC BAA-2469, 18 h
Staphylococcus aureus [7] = assay: Antimicrobial activity against penicillin-resistant Staphylococcus aureus ATCC 29213 measured after 18 hrs by broth microdilution method; details: ATCC 29213, 18 h
Enterococcus faecium [8] = assay: Antimicrobial activity against drug-susceptible Enterococcus faecium ATCC 49624 measured after 18 hrs by broth microdilution method; details: ATCC 49624, 18 h
Klebsiella pneumoniae = assay: Antimicrobial activity against NDM1 beta-lactamase expressing Klebsiella pneumoniae ATCC BAA-2470 measured after 18 hrs by broth microdilution method; details: ATCC BAA-2470, 18 h
Pseudomonas aeruginosa = assay: Antimicrobial activity against multidrug-resistant Pseudomonas aeruginosa ATCC BAA-2108 measured after 18 hrs by broth microdilution method; details: ATCC BAA-2108, 18 h
Enterococcus faecalis = assay: Antimicrobial activity against Enterococcus faecalis ATCC 29212 measured after 18 hrs by broth microdilution method; details: ATCC 29212, 18 h
Enterobacter cloacae = assay: Antimicrobial activity against Ampc beta-lactamase expressing Enterobacter cloacae ATCC BAA-1143 measured after 18 hrs by broth microdilution method; details: ATCC BAA-1143, 18 h
Acinetobacter baumannii = assay: Antimicrobial activity against multidrug-resistant Acinetobacter baumannii ATCC 19606 measured after 18 hrs by broth microdilution method; details: ATCC 19606 = CIP 70.34 = JCM 6841, 18 h
Bacillus subtilis = assay: Antibacterial activity against Bacillus subtilis 168 measured after 18 hrs by broth microdilution method; details: subsp. subtilis str. 168, 18 h
Staphylococcus aureus [9] = assay: Bactericidal activity against methicillin-resistant Staphylococcus aureus ATCC BAA-41 incubated for 18 hrs followed by replating on TSB agar and measured after 24 hrs by broth microdilution method
Staphylococcus aureus [10] = assay: Bactericidal activity against penicillin-resistant Staphylococcus aureus ATCC 29213 incubated for 18 hrs followed by replating on TSB agar and measured after 24 hrs by broth microdilution method
Staphylococcus aureus [11] = assay: Antimicrobial activity against penicillin-resistant Staphylococcus aureus ATCC 29213 assessed as ratio of MIC after and before 15 serial passages preincubated followed by replating and measured after 24 hrs

Structure (SMILES) | MIC (Staphylococcus aureus [1]) [µg/mL] | MIC (Enterococcus faecium [2]) [µg/mL] | MIC (Escherichia coli [3]) [µg/mL] | MIC (Staphylococcus aureus [4]) [µg/mL] | MIC (Staphylococcus aureus [5]) [µg/mL] | MIC (Escherichia coli [6]) [µg/mL] | MIC (Staphylococcus aureus [7]) [µg/mL] | MIC (Enterococcus faecium [8]) [µg/mL] | MIC (Klebsiella pneumoniae) [µg/mL] | MIC (Pseudomonas aeruginosa) [µg/mL] | MIC (Enterococcus faecalis) [µg/mL] | MIC (Enterobacter cloacae) [µg/mL] | MIC (Acinetobacter baumannii) [µg/mL] | MIC (Bacillus subtilis) [µg/mL] | MBC (Staphylococcus aureus [9]) [µg/mL] | MBC (Staphylococcus aureus [10]) [µg/mL] | Ratio (Staphylococcus aureus [11])
CCN(CC)CCNc1cc(/C=C/c2cc3ccccc3[nH]2)[n+](C)c2ccccc12.[I-] | 16 | 64 | 64 | 64 | 32 | 64 | 16 | 32 | > 64 | > 64 | 64 | > 64 | > 64 | 16 |  |  | 
CN[C@H](CC(C)C)C(=O)N[C@H]1C(=O)N[C@@H](CC(N)=O)C(=O)N[C@H]2C(=O)N[C@H]3C(=O)N[C@H](C(=O)N[C@H](C(=O)O)c4cc(O)cc(O)c4-c4cc3ccc4O)[C@H](O)c3ccc(c(Cl)c3)Oc3cc2cc(c3O[C@@H]2O[C@H](CO)[C@@H](O)[C@H](O)[C@H]2O[C@H]2C[C@](C)(N)[C@H](O)[C@H](C)O2)Oc2ccc(cc2Cl)[C@H]1O [VANCOMYCIN] |  | > 64 | > 64 |  |  | > 64 |  |  | > 64 | > 64 | 2 (≈ 1.38 µM) | > 64 | 64 (≈ 44.2 µM) | 0.25 (≈ 0.173 µM) | 2 (≈ 1.38 µM) | 2 (≈ 1.38 µM) | 
C[n+]1c(/C=C/c2c[nH]c3ccccc23)ccc2ccccc21.[I-] | 32 | 64 | > 64 | 32 | 32 | > 64 | 32 | 32 | > 64 | > 64 | 32 | > 64 | > 64 | 32 |  |  | 
CO[C@H]1/C=C/O[C@@]2(C)Oc3c(C)c(O)c4c(O)c(c(/C=N/N5CCN(C)CC5)c(O)c4c3C2=O)NC(=O)/C(C)=C\C=C\[C@H](C)[C@H](O)[C@@H](C)[C@@H](O)[C@@H](C)[C@H](OC(C)=O)[C@@H]1C [RIFAMPIN] |  |  |  |  |  |  |  |  |  |  |  |  |  |  |  |  | 2000
O=C(O)c1cn(C2CC2)c2cc(N3CCNCC3)c(F)cc2c1=O [CIPROFLOXACIN] | < 0.125 | > 64 | < 0.125 | 2 (≈ 6.04 µM) | > 64 | > 64 | 2 (≈ 6.04 µM) | 32 (≈ 96.6 µM) | 64 (≈ 193 µM) | 64 (≈ 193 µM) | 4 (≈ 12.1 µM) |  | 2 (≈ 6.04 µM) | 2 (≈ 6.04 µM) |  |  | 
C[n+]1c(/C=C/c2cc3ccccc3[nH]2)cc(N2CCOCC2)c2ccccc21.[I-] | 16 | 32 | 64 | 16 | 16 | 64 | 16 | 16 | > 64 | > 64 | 64 | > 64 | > 64 | 8 |  |  | 
C[n+]1c(/C=C/c2cc3ccccc3[nH]2)cc(NCCN2CCCCC2)c2ccccc21.[I-] | 16 | 32 | 32 | 32 | 32 | 64 | 16 | 16 | > 64 | > 64 | 64 | > 64 | 64 | 16 |  |  | 
C[n+]1c(/C=C/c2c[nH]c3ccccc23)cc(N2CCCC2)c2ccccc21.[I-] | 4 | 8 | 32 | 16 | 4 | 32 | 2 | 4 | > 64 | > 64 | 16 | > 64 | 64 | 8 |  |  | 
